O=C(O)CC[C@H](NC(=O)OCC1c2ccccc2-c2ccccc21)C(=O)O
solubility (mole fraction)
Conditions	283.15 K	288.15 K	293.15 K	298.15 K	303.15 K	308.15 K	313.15 K	318.15 K	323.15 K
in 2-butanone	0.0112	0.0112	0.012	0.0127	0.0136	0.0143	0.0157	0.0176	0.0191
in acetone	0.0243	0.0261	0.0274	0.0295	0.0323	0.0342	0.0393	0.0437	0.0471
in acetonitrile	0.000662	0.000708	0.0008	0.000997	0.00123	0.00139	0.00166	0.00194	0.00232
in dimethyl carbonate	0.00058	0.000625	0.000736	0.000819	0.000911	0.00108	0.00123	0.00157	0.00186
in ethanol	0.0231	0.0257	0.0276	0.0319	0.0371	0.0419	0.0468	0.0514	0.0598
in ethyl acetate	0.00239	0.0026	0.00296	0.00318	0.00347	0.00391	0.00451	0.00498	0.0056
in isopropanol	0.0139	0.0142	0.0156	0.0175	0.0199	0.0238	0.0269	0.0302	0.0351
in methanol	0.0246	0.0266	0.0295	0.0325	0.0364	0.0413	0.0471	0.0525	0.0611
in methyl acetate	0.00319	0.00355	0.00388	0.00418	0.00473	0.00535	0.00609	0.00726	0.00888
in n-butanol	0.00911	0.00972	0.0102	0.0114	0.0127	0.0141	0.016	0.0173	0.0199
in n-butyl acetate	0.00177	0.00182	0.00204	0.0022	0.00238	0.00269	0.00309	0.0034	0.00381
in n-pentanol	0.00655	0.00765	0.00845	0.00993	0.0112	0.0128	0.0159	0.0187	0.0221
in n-propanol	0.0138	0.0146	0.0155	0.0172	0.02	0.0237	0.0258	0.03	0.0333
in n-propyl acetate	0.0016	0.00169	0.00192	0.00204	0.00232	0.00247	0.00281	0.00317	0.00355
